Laboratory results reported in patent publication US20240299352A1, “COMBINATION THERAPIES WITH SETD2 INHIBITORS” (Epizyme, Inc., priority 2021, published 2024).

Legend:
[1] = tested on: TOLEDO; assay: Co-treatment combination study with Cpd. No. 15, CellTiter-Glo viability, Loewe Volume; format: cell-based; conditions: in combination with Cpd. No. 15, seven days, DLBCL cell line TOLEDO
Method: (§1) Mantle cell lymphoma (MCL) and diffuse large B-cell lymphoma (DLBCL) cell line cultures in log-linear growth rate were treated with combinations of Cpd. No. 15 and combination partners according to a co-treatment model. […] No. 15 and the combination partner. […] Each combination was tested in quadruplicate wells. The final concentration of DMSO (vehicle) in the assay was 0.1% v/v. Fifty microliters of cell line suspension were directly dispensed to the assay-ready plates with an automated multichannel dispenser on to 384-well assay-ready plates. Assay plates were incubated for seven days unless otherwise indicated in a humidified atmosphere of 5% CO2 at 37° C. Quantification of the effect of single agents or combinations on cell viability was performed through measurement of cellular adenosine triphosphate (ATP) using a CellTiter-Glo® (Promega, Madison, WI) Luminescent Cell Viability Assay. Luminescence was detected using a SpectraMax M5 microplate reader (Molecular Devices, Sunnyvale, CA). Concentration response plots were generated in GraphPad Prism version 7.0 for Windows, GraphPad Software, (La Jolla, California) and curves fitted to a four-parameter logistic model with variable slope. Percent of inhibition was calculated at each treatment concentration.

[2] = tested on: SUDHL2; assay: as above; format: cell-based; conditions: in combination with Cpd. No. 15, seven days, DLBCL cell line SUDHL2
Method: as §1

[3] = tested on: Pfeiffer; assay: as above; format: cell-based; conditions: in combination with Cpd. No. 15, seven days, DLBCL cell line Pfeiffer
Method: as §1

[4] = tested on: RL; assay: as above; format: cell-based; conditions: in combination with Cpd. No. 15; 6-Day Cotreatment; DLBCL cell line RL
Method: as §1

[5] = tested on: SUDHL8; assay: as above; format: cell-based; conditions: in combination with Cpd. No. 15, seven days, DLBCL cell line SUDHL8
Method: as §1

[6] = tested on: WSUNHL; assay: as above; format: cell-based; conditions: in combination with Cpd. No. 15, seven days, DLBCL cell line WSUNHL
Method: as §1

[7] = tested on: KARPAS422; assay: as above; format: cell-based; conditions: in combination with Cpd. No. 15, seven days, DLBCL cell line KARPAS422
Method: as §1

[8] = tested on: DOHH2; assay: as above; format: cell-based; conditions: in combination with Cpd. No. 15, seven days, DLBCL cell line DOHH2
Method: as §1

[9] = tested on: SUDHL6; assay: as above; format: cell-based; conditions: in combination with Cpd. No. 15, seven days, DLBCL cell line SUDHL6
Method: as §1

[10] = tested on: WILL2; assay: as above; format: cell-based; conditions: in combination with Cpd. No. 15, seven days, DLBCL cell line WILL2
Method: as §1

[11] = tested on: HT; assay: as above; format: cell-based; conditions: in combination with Cpd. No. 15, seven days, DLBCL cell line HT
Method: as §1

[12] = tested on: SUDHL5; assay: as above; format: cell-based; conditions: in combination with Cpd. No. 15, seven days, DLBCL cell line SUDHL5
Method: as §1

[13] = tested on: DB; assay: as above; format: cell-based; conditions: in combination with Cpd. No. 15, seven days, DLBCL cell line DB
Method: as §1

[14] = tested on: SUDHL4; assay: as above; format: cell-based; conditions: in combination with Cpd. No. 15, seven days, DLBCL cell line SUDHL4
Method: as §1

[15] = tested on: SUDHL10; assay: as above; format: cell-based; conditions: in combination with Cpd. No. 15; 5-Day Cotreatment; DLBCL cell line SUDHL10
Method: as §1

[16] = tested on: WSUDLCL2; assay: as above; format: cell-based; conditions: in combination with Cpd. No. 15, seven days, DLBCL cell line WSUDLCL2
Method: as §1

[17] = tested on: diffuse large B-cell lymphoma (DLBCL) cell lines; assay: Co-treatment combination study with Cpd. No. 15, further cell lines (Table F), CellTiter-Glo viability, Loewe Volume; format: cell-based; conditions: for Combination effect with Cpd. No. 15 (Loewe Volume class), Ri1: co-treatment with Cpd. No. 15, cell line Ri1 (Cat. No. 96090512-1VL); for Combination effect with Cpd. No. 15 (Loewe Volume class), TMD8: co-treatment with Cpd. No. 15, cell line TMD8 (Cat. No. M-097); for Combination effect with Cpd. No. 15 (Loewe Volume class), WILL1: co-treatment with Cpd. No. 15, cell line WILL1 (Cat. No. ACC 651)
Method: as §1

[18] = tested on: MINO; assay: Co-treatment combination study with Cpd. No. 15, CellTiter-Glo viability, Loewe Volume; format: cell-based; conditions: in combination with Cpd. No. 15, seven days, mantle cell lymphoma cell line MINO (CRL-3000)
Method: as §1

[19] = tested on: GRANTA519; assay: as above; format: cell-based; conditions: in combination with Cpd. No. 15, seven days, mantle cell lymphoma cell line GRANTA519 (ACC 342)
Method: as §1

[20] = tested on: JVM2; assay: as above; format: cell-based; conditions: in combination with Cpd. No. 15, seven days, mantle cell lymphoma cell line JVM2 (CRL-3002)
Method: as §1

[21] = tested on: Z138; assay: as above; format: cell-based; conditions: in combination with Cpd. No. 15, seven days, mantle cell lymphoma cell line Z138 (CRL-3001)
Method: as §1

[22] = tested on: JEKO1; assay: as above; format: cell-based; conditions: in combination with Cpd. No. 15, seven days, mantle cell lymphoma cell line JEKO1 (CRL-3006)
Method: as §1

[23] = tested on: MAVER1; assay: as above; format: cell-based; conditions: in combination with Cpd. No. 15, seven days, mantle cell lymphoma cell line MAVER1 (CRL-3008)
Method: as §1

[24] = tested on: REC1; assay: as above; format: cell-based; conditions: in combination with Cpd. No. 15, seven days, mantle cell lymphoma cell line REC1 (CRL-3004)
Method: as §1

[25] = tested on: diffuse large B-cell lymphoma (DLBCL) cell lines; assay: Pre-treatment model combination study with Cpd. No. 15 (7 days pre-treatment, then combination; Table G), CellTiter-Glo viability, Loewe Volume; conditions: 7 days pre-treatment with Cpd. No. 15, then combination

Molecule	Combination effect (Loewe Volume) TOLEDO [1]	Combination effect (Loewe Volume) SUDHL2 [2]	Combination effect (Loewe Volume) Pfeiffer [3]	Combination effect (Loewe Volume) SUDHL8 [5]	Combination effect (Loewe Volume) WSUNHL [6]	Combination effect (Loewe Volume) KARPAS422 [7]	Combination effect (Loewe Volume) DOHH2 [8]	Combination effect (Loewe Volume) SUDHL6 [9]	Combination effect (Loewe Volume) WILL2 [10]	Combination effect (Loewe Volume) HT [11]	Combination effect (Loewe Volume) SUDHL5 [12]	Combination effect (Loewe Volume) DB [13]	Combination effect (Loewe Volume) SUDHL10 [15]	Combination effect with Cpd. No. 15 (Loewe Volume class), Ri1 [17]	Combination effect with Cpd. No. 15 (Loewe Volume class), TMD8 [17]	Combination effect with Cpd. No. 15 (Loewe Volume class), WILL1 [17]	other results
CNC[C@@H](O)COc1ccc(Cl)c(-c2nc(-c3c(C)noc3C)c(C)c(N3CC4(CCN(C(=O)OC)CC4)C3)n2)c1 [EPZ-2302]	Synergy (VLoewe>1: synergy)	Synergy (VLoewe>1: synergy)	No Effect	No Effect	Synergy (VLoewe>1: synergy)	Synergy (VLoewe>1: synergy)	Synergy (VLoewe>1: synergy)	Synergy (VLoewe>1: synergy)	Synergy (VLoewe>1: synergy)	Synergy (VLoewe>1: synergy)	Additivity (between 1 and −1: additivity)	No Effect	No Effect	Synergy (VLoewe>1: synergy)	Synergy (VLoewe>1: synergy)	Synergy (VLoewe>1: synergy)	Combination effect (Loewe Volume) RL [4]: Synergy (VLoewe>1: synergy); Combination effect (Loewe Volume) SUDHL4 [14]: Synergy (VLoewe>1: synergy); Combination effect (Loewe Volume) WSUDLCL2 [16]: Synergy (VLoewe>1: synergy)
rituximab	Additivity (between 1 and −1: additivity)	No Effect	No Effect	Additivity (between 1 and −1: additivity)	Additivity (between 1 and −1: additivity)	No Effect	Synergy (VLoewe>1: synergy)	Synergy (VLoewe>1: synergy)	Additivity (between 1 and −1: additivity)	Additivity (between 1 and −1: additivity)	–	No Effect	Additivity (between 1 and −1: additivity)	Additivity (between 1 and −1: additivity)	No Effect	No Effect	Combination effect (Loewe Volume) MINO [18]: No Effect; Combination effect (Loewe Volume) GRANTA519 [19]: Additivity (between 1 and −1: additivity); Combination effect (Loewe Volume) JVM2 [20]: Additivity (between 1 and −1: additivity); Combination effect (Loewe Volume) Z138 [21]: No Effect; Combination effect (Loewe Volume) JEKO1 [22]: Synergy (VLoewe>1: synergy); Combination effect (Loewe Volume) MAVER1 [23]: Synergy (VLoewe>1: synergy); Combination effect (Loewe Volume) REC1 [24]: Additivity (between 1 and −1: additivity)
N.N.O=C([O-])C1(C(=O)[O-])CCC1.[Pt+2] [Carboplatin, carboplatin]	Additivity (between 1 and −1: additivity)	Additivity (between 1 and −1: additivity)	Additivity (between 1 and −1: additivity)	Synergy (VLoewe>1: synergy)	Synergy (VLoewe>1: synergy)	Additivity (between 1 and −1: additivity)	Additivity (between 1 and −1: additivity)	–	Additivity (between 1 and −1: additivity)	Additivity (between 1 and −1: additivity)	Additivity (between 1 and −1: additivity)	Additivity (between 1 and −1: additivity)	Additivity (between 1 and −1: additivity)	Additivity (between 1 and −1: additivity)	Additivity (between 1 and −1: additivity)	Additivity (between 1 and −1: additivity)	Combination effect with Cpd. No. 15 (Loewe Volume class), Farage ([25]; cell line Farage (Cat. No. CRL-2630)): Additivity (between 1 and −1: additivity); Combination effect with Cpd. No. 15 (Loewe Volume class), HT ([25]; cell line HT (Cat. No. CRL-2631)): Synergy (VLoewe>1: synergy); Combination effect with Cpd. No. 15 (Loewe Volume class), OCILY7 ([25]; cell line OCILY7 (Cat. No. ACC 688)): Additivity (between 1 and −1: additivity); Combination effect with Cpd. No. 15 (Loewe Volume class), WILL2 ([25]; cell line WILL2 (Cat. No. ACC 652)): Synergy (VLoewe>1: synergy)
